Source: the supplement of paper PMC10307832

Key:
Experiment in all cases: relative viability (nuclei count vs DMSO), 5 days (fraction); higher = more cells survive
COR-L23 = system: COR-L23
Summary of the method: (§1)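 Lung cancer cell lines in 1536-well plates were dosed by pin tool the day after seeding, either with one drug alone or with a fixed anchor-drug dose plus five library-drug doses (not always all listed) in √10 steps. After 5 days, cells were fixed and their nuclei stained in one step (final 0.05% Triton X-100, 1% formaldehyde, 1 ug/ml Hoechst), then counted on 4× images. Relative viability is the nuclei count in treated wells divided by that in vehicle wells. Values are medians of duplicate plates.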

HOP-62 = system: HOP-62
Summary of the method: as §1

UMC-11 = system: UMC-11
Summary of the method: as §1

NCI-H1755 = system: NCI-H1755
Summary of the method: as §1

NCI-H358 = system: NCI-H358
Summary of the method: as §1

COR-L 105 = system: COR-L 105
Summary of the method: as §1

NCI-H647 = system: NCI-H647
Summary of the method: as §1

NCI-H1734 = system: NCI-H1734
Summary of the method: as §1

NCI-H1395 = system: NCI-H1395
Summary of the method: as §1

HARA = system: HARA
Summary of the method: as §1

NCI-H1792 = system: NCI-H1792
Summary of the method: as §1

NCI-H1793 = system: NCI-H1793
Summary of the method: as §1

NCI-H2347 = system: NCI-H2347
Summary of the method: as §1

NCI-H2009 = system: NCI-H2009
Summary of the method: as §1

NCI-H838 = system: NCI-H838
Summary of the method: as §1

NCI-H2170 = system: NCI-H2170
Summary of the method: as §1

SK-MES-1 = system: SK-MES-1
Summary of the method: as §1

NCI-H1355 = system: NCI-H1355
Summary of the method: as §1

NCI-H1993 = system: NCI-H1993
Summary of the method: as §1

HCC-15 = system: HCC-15
Summary of the method: as §1

NCI-H2228 = system: NCI-H2228
Summary of the method: as §1

NCI-H522 = system: NCI-H522
Summary of the method: as §1

`CCN(CC)CCCCNc1ncc2cc(-c3cc(OC)cc(OC)c3)c(NC(=O)NC(C)(C)C)nc2n1` + Cc1nc(Nc2ncc(C(=O)Nc3c(C)cccc3Cl)s2)cc(N2CCN(CCO)CC2)n1 [Dasatinib] (partner 0.075 µM) gave a relative viability (COR-L23; first compound 0.01 µM) of 0.527, a relative viability (COR-L23; first compound 0.03162 µM) of 0.549 and a relative viability (COR-L23; first compound 0.1 µM) of 0.546. The relative viability (COR-L23; first compound 0.3162 µM) was 0.566, the relative viability (COR-L23; first compound 1 µM) was 0.608 and the relative viability (HOP-62; first compound 0.01 µM) was 0.67. The relative viability (HOP-62; first compound 0.03162 µM) was 0.726, the relative viability (HOP-62; first compound 0.1 µM) was 0.828 and the relative viability (HOP-62; first compound 0.3162 µM) was 0.707. The relative viability (HOP-62; first compound 1 µM) was 0.417, the relative viability (UMC-11; first compound 0.01 µM) was 0.541 and the relative viability (UMC-11; first compound 0.03162 µM) was 0.485. It also gave a relative viability (UMC-11; first compound 0.1 µM) of 0.722, a relative viability (UMC-11; first compound 0.3162 µM) of 0.581 and a relative viability (UMC-11; first compound 1 µM) of 0.405. The relative viability (NCI-H1755; first compound 0.01 µM) was 0.394, the relative viability (NCI-H1755; first compound 0.03162 µM) was 0.464 and the relative viability (NCI-H1755; first compound 0.1 µM) was 0.518. The relative viability (NCI-H1755; first compound 0.3162 µM) was 0.621, the relative viability (NCI-H1755; first compound 1 µM) was 0.207 and the relative viability (NCI-H358; first compound 0.01 µM) was 0.169. The relative viability (NCI-H358; first compound 0.03162 µM) was 0.127, the relative viability (NCI-H358; first compound 0.1 µM) was 0.157 and the relative viability (NCI-H358; first compound 0.3162 µM) was 0.147. For the same compound, the relative viability (NCI-H358; first compound 1 µM) was 0.198, the relative viability (COR-L 105; first compound 0.01 µM) was 0.297 and the relative viability (COR-L 105; first compound 0.03162 µM) was 0.282. For the same compound, the relative viability (COR-L 105; first compound 0.1 µM) was 0.354, the relative viability (COR-L 105; first compound 0.3162 µM) was 0.381 and the relative viability (COR-L 105; first compound 1 µM) was 0.279. For the same compound, the relative viability (NCI-H647; first compound 0.01 µM) was 0.189, the relative viability (NCI-H647; first compound 0.03162 µM) was 0.174 and the relative viability (NCI-H647; first compound 0.1 µM) was 0.209. It also gave a relative viability (NCI-H647; first compound 0.3162 µM) of 0.218, a relative viability (NCI-H647; first compound 1 µM) of 0.0989 and a relative viability (NCI-H1734; first compound 0.01 µM) of 0.508. For the same compound, the relative viability (NCI-H1734; first compound 0.03162 µM) was 0.507, the relative viability (NCI-H1734; first compound 0.1 µM) was 0.521 and the relative viability (NCI-H1734; first compound 0.3162 µM) was 0.543. For the same compound, the relative viability (NCI-H1734; first compound 1 µM) was 0.436, the relative viability (NCI-H1395; first compound 0.01 µM) was 0.421 and the relative viability (NCI-H1395; first compound 0.03162 µM) was 0.422. It also gave a relative viability (NCI-H1395; first compound 0.1 µM) of 0.753, a relative viability (NCI-H1395; first compound 0.3162 µM) of 0.386 and a relative viability (NCI-H1395; first compound 1 µM) of 0.411. The relative viability (HARA; first compound 0.01 µM) was 0.284, the relative viability (HARA; first compound 0.03162 µM) was 0.246 and the relative viability (HARA; first compound 0.1 µM) was 0.312. For the same compound, the relative viability (HARA; first compound 0.3162 µM) was 0.142, the relative viability (HARA; first compound 1 µM) was 0.237 and the relative viability (NCI-H1792; first compound 0.01 µM) was 0.734. It also gave a relative viability (NCI-H1792; first compound 0.03162 µM) of 0.849, a relative viability (NCI-H1792; first compound 0.1 µM) of 0.837 and a relative viability (NCI-H1792; first compound 0.3162 µM) of 0.671. For the same compound, the relative viability (NCI-H1792; first compound 1 µM) was 0.475, the relative viability (NCI-H1793; first compound 0.01 µM) was 0.369 and the relative viability (NCI-H1793; first compound 0.03162 µM) was 0.312. It also gave a relative viability (NCI-H1793; first compound 0.1 µM) of 0.372, a relative viability (NCI-H1793; first compound 0.3162 µM) of 0.283 and a relative viability (NCI-H1793; first compound 1 µM) of 0.271. The relative viability (NCI-H2347; first compound 0.01 µM) was 0.149, the relative viability (NCI-H2347; first compound 0.03162 µM) was 0.315 and the relative viability (NCI-H2347; first compound 0.1 µM) was 0.39. The relative viability (NCI-H2347; first compound 0.3162 µM) was 0.288, the relative viability (NCI-H2347; first compound 1 µM) was 0.31 and the relative viability (NCI-H2009; first compound 0.01 µM) was 0.299. For the same compound, the relative viability (NCI-H2009; first compound 0.03162 µM) was 0.316, the relative viability (NCI-H2009; first compound 0.1 µM) was 0.347 and the relative viability (NCI-H2009; first compound 0.3162 µM) was 0.292. It also gave a relative viability (NCI-H2009; first compound 1 µM) of 0.246, a relative viability (NCI-H838; first compound 0.01 µM) of 0.259 and a relative viability (NCI-H838; first compound 0.03162 µM) of 0.305. It also gave a relative viability (NCI-H838; first compound 0.1 µM) of 0.307, a relative viability (NCI-H838; first compound 0.3162 µM) of 0.305 and a relative viability (NCI-H838; first compound 1 µM) of 0.246. The relative viability (NCI-H2170; first compound 0.01 µM) was 0.537, the relative viability (NCI-H2170; first compound 0.03162 µM) was 0.574 and the relative viability (NCI-H2170; first compound 0.1 µM) was 0.643. The relative viability (NCI-H2170; first compound 0.3162 µM) was 0.818, the relative viability (NCI-H2170; first compound 1 µM) was 0.539 and the relative viability (SK-MES-1; first compound 0.01 µM) was 0.36. It also gave a relative viability (SK-MES-1; first compound 0.03162 µM) of 0.375, a relative viability (SK-MES-1; first compound 0.1 µM) of 0.407 and a relative viability (SK-MES-1; first compound 0.3162 µM) of 0.281. It also gave a relative viability (SK-MES-1; first compound 1 µM) of 0.27, a relative viability (NCI-H1355; first compound 0.01 µM) of 0.775 and a relative viability (NCI-H1355; first compound 0.03162 µM) of 0.751. For the same compound, the relative viability (NCI-H1355; first compound 0.1 µM) was 0.746, the relative viability (NCI-H1355; first compound 0.3162 µM) was 0.775 and the relative viability (NCI-H1355; first compound 1 µM) was 0.663. For the same compound, the relative viability (NCI-H1993; first compound 0.01 µM) was 0.31, the relative viability (NCI-H1993; first compound 0.03162 µM) was 0.604 and the relative viability (NCI-H1993; first compound 0.1 µM) was 0.611. The relative viability (NCI-H1993; first compound 0.3162 µM) was 0.604, the relative viability (NCI-H1993; first compound 1 µM) was 0.536 and the relative viability (HCC-15; first compound 0.01 µM) was 0.613. The relative viability (HCC-15; first compound 0.03162 µM) was 0.7, the relative viability (HCC-15; first compound 0.1 µM) was 0.681 and the relative viability (HCC-15; first compound 0.3162 µM) was 0.748. For the same compound, the relative viability (HCC-15; first compound 1 µM) was 0.554, the relative viability (NCI-H2228; first compound 0.01 µM) was 0.586 and the relative viability (NCI-H2228; first compound 0.03162 µM) was 0.589. For the same compound, the relative viability (NCI-H2228; first compound 0.1 µM) was 0.793, the relative viability (NCI-H2228; first compound 0.3162 µM) was 0.536 and the relative viability (NCI-H2228; first compound 1 µM) was 0.431. It also gave a relative viability (NCI-H522; first compound 0.01 µM) of 0.862, a relative viability (NCI-H522; first compound 0.03162 µM) of 1.01 and a relative viability (NCI-H522; first compound 0.1 µM) of 1. The relative viability (NCI-H522; first compound 0.3162 µM) was 0.879 and the relative viability (NCI-H522; first compound 1 µM) was 0.79.
